“Also recorded” adds a separate entry of the source.
Assays:
[1] = Blood-brain distribution in rats; format: in vivo; details: male, Sprague Dawley, rat, 24 mg kg^−1 IP
Experimental: Blood-brain distribution. Measurements of blood-brain distribution in rats were performed by Admescope (Finland). The male Sprague Dawley rats (120-157 g) were housed in air-conditioned rooms (12h dark/light cycle) at 22 °C and a humidity of 55%. Animals were allowed to acclimatize to the site for at least five days prior to the study.
Compound 30 (24 mg/kg, formulated in 17% DMSO in saline) was administered intraperitoneally and blood samples were collected at 10, 30, and 50 min after dosing. Within 30 min following the sampling, the blood was centrifuged for plasma separation (room temperature; 10 min; 2700 G). The plasma samples were transferred into plastic tubes, frozen and stored at –20 °C until analysis. Brains were perfused under terminal isoflurane anaesthesia at 10, 30 and 50 min after dosing (n=6 per time point). For the perfusion, the heart of the rat was expo sed and major veins leading to the right atrium were severed. […]
Evaluation of compound 30 in rodent model of Parkinsonism. […] Two weeks after the unilateral 6-OHDA lesion, rats were injected with apomorphine (1 mg/kg, IP; Sigma) and their contralateral rotations were measured to determine the degree of nigrostriatal denervation. […] The number of rotations was calculated automatically with Noldus EthoVision XT11. […]

[2] = test system: unilaterally 6-OHDA lesioned rats; test: Rotation test in unilaterally 6-OHDA lesioned rats (model of Parkinsonism); format: in vivo
Experimental: Evaluation of compound 30 in rodent model of Parkinsonism. Male Sprague Dawley rats (150-200 g) were housed in air-conditioned rooms (12h dark/light cycle) at 20°C and a humidity of 53%. Experiments were performed in agreement with the European Communities Council Directive of 24 November 1986 (86/609/EEC) on the ethical use of animals and were approved by the local ethical committee (Stockholm North Ethical Committee, N105/16). Rats were anesthetized with ketamine (100 mg/kg, IP; Intervet)/xylazine (5 mg/kg, IP; Bayer, Kiel, Germany), pretreated with desipramine (25 mg/kg, IP; Sigma, St Louis, MO, USA)/pargyline (5 mg/kg, IP; Sigma), placed in a stereotaxi c instrument and injected with 6-OHDA (2.5 µl of a 5mg/ml solution; Sigma) into the median forebrain bundle (MFB) of the right hemisphere (AP -2.8 mm, ML -2.0 mm and V -9.0 mm). Two weeks after the unilateral 6-OHDA lesion, rats were injected with apomorphine (1 mg/kg, IP; Sigma) and their contralateral rotations were measured to determine the degree of nigrostriatal denervation. Four weeks after surgery, rats that were divided into two group according to the number of apomorphine-induced rotations. The rats were treated either with DMSO(17%)/saline (n=6) or compound 30 (n=7, 24 mg/kg, IP) dissolved in DMSO(17%)/saline. The number of rotations was calculated automatically with Noldus EthoVision XT11. 5 Software for 30 min following the drug administration. The two […]
groups were then compared by using a Mann-Whitney test. A second set of independent experiments using a new set of rats were carried out using the same protocol to assess the involvement of the D2R in the observed effect. In this case, rats were divided into four groups according to the number of apomorphine-induced rotations. The rats were treated with either DMSO(17%)/saline (n=6), raclopride (n=7, 2mg/kg, IP) dissolved in DMSO(17%)/saline, compound 30 (n=7, 24 mg/kg, IP) dissolved in DMSO(17%)/saline or the combination of raclopride (30 min pretreatment) and compound 30 (n=7). The rotation test was then performed for 30 min. […]

concentration at 30 min ([1]; brain, at 30 min, read-out: total concentration in the brain): ~3000 nM | Kp at 0.5 h ([1]; brain/plasma, peak after 30 min, mean±SD, read-out: brain-to-plasma ratio): 0.79 ± 0.13
SMILES: CCCN(CCCCC(=O)Nc1nc2c(OC)ccc(OC)c2s1)C1Cc2ccccc2C1 [Compound 30]
contralateral rotations (net rotations, 30 min) versus control group ([2]; 24 mg kg^−1 IP, 6-OHDA lesioned rats, p<0.01 first set, p<0.05 independent second set): significantly higher number of contralateral rotations; also recorded: significant increase of contralateral rotations | effect on contralateral rotations in combination with D2 antagonist raclopride ([2]; 30 at 24 mg kg^−1 IP with raclopride 2 mg kg^−1 IP (30 min pretreatment)): reversed

From paper PMC8456950, “Structure‐Guided Design of G‐Protein‐Coupled Receptor Polypharmacology” (Angewandte Chemie (International Ed. in English), 2021)
